The source of these data is patent US20020004042A1, “Gene therapy for pulmonary edema using adenovirus vectors encoding a beta2adrenergic receptor gene” (priority 2000, published 2002).

One assay deals with Na,K-ATPase. The assay can be described thus: Western analysis of Na,K-ATPase α1 and β1 in basolateral membrane of A549 cells. It counts as cell-based, human. To be noted: ICI 118,551 10^-6 M 10 minutes prior to procaterol. The protocol: To test if β2AR overexpression can affect active Na^+ transport in vitro, A549 cells were treated as described above prior to measurement of ouabain-sensitive Na^+ transport (an index of Na,K-ATPase activity). […] Additional studies done to establish the mechanisms responsible for this finding included quantification of Na,K-ATPase α1 and β1 expression in the basolateral membrane of A549 cells.

The subject of a further assay is rat lungs. The assay is described as follows: Lung liquid clearance, fluid-filled isolated perfused rat lung preparation. The note with it: procaterol 100 μg every 8 hours by gavage. It counts as in vivo, Sprague-Dawley rats. On the procedure: To test if β2AR gene transfer could increase transgene expression and if overexpression could affect the transepithelial osmotic gradient necessary to achieve pulmonary edema clearance, normal Sprague-Dawley rats were infected with the vectors disclosed in Example 1. 250-300 gm male Sprague-Dawley rats were lightly sedated with pentobarbital prior to orotracheal intubation with a 14 g angiocatheter. Adenovirus (4×10^9 pfu) was suspended in […] of a 50% surfactant/50% dialysis buffer mixture (Surfanta, Abbott Laboratories, Columbus, Ohio). […]
Seven days after infection, whole lung transgene expression was measured via Western analysis using a rabbit anti-human β2AR antibody and chemiluminescent detection method. […] To test for in vivo transgene function lung liquid clearance was measured using a well-established isolated lung preparation. […]
To test if agonist-induced loss of receptor function and/or expression occurs in the alveolar epithelium normal rats were treated with the β2AR specific agonist procaterol (100 μg every 8 hours by gavage). Lung liquid clearance was then measured using a fluid-filled isolated lung preparation in the presence of procaterol (10^−6 M instilled into the alveolar airspace and perfused through the pulmonary artery) beginning 4 hours after the first dose. […]

A further assay deals with T1, β2AR (Rattus norvegicus, UniProt P10608).
T1 construct: from tissue; host or cells: apical membranes of rat peripheral lung
The assay is described as follows: Western analysis of β2AR in apical membranes of peripheral lung of procaterol-treated rats. It counts as in vivo. The note with it: procaterol 100 μg every 8 hours by gavage. The protocol:
To test if agonist-induced loss of receptor function and/or expression occurs in the alveolar epithelium normal rats were treated with the β2AR specific agonist procaterol (100 μg every 8 hours by gavage). Lung liquid clearance was then measured using a fluid-filled isolated lung preparation in the presence of procaterol (10^−6 M instilled into the alveolar airspace and perfused through the pulmonary artery) beginning 4 hours after the first dose. […] Thus, the loss of catecholamine responsive lung liquid clearance in these rats is likely due, in part, to receptor downregulation.

T1 sequence (P10608 whole entry): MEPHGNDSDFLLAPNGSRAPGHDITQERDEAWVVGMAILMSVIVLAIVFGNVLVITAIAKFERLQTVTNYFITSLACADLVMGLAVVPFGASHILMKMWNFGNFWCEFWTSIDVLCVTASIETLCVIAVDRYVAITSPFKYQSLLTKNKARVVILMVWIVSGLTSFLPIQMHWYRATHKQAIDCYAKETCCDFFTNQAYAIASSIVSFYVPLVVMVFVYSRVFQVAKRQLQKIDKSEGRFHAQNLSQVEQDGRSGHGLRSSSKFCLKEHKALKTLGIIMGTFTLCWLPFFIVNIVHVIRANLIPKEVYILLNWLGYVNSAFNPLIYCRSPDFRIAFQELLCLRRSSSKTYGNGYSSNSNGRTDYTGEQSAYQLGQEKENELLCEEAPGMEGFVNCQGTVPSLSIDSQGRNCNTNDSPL

For `Cc1ccc(OCC(O)C(C)NC(C)C)c2c1CCC2` (stereo not shown) [ICI 118,551], the “effect of antagonist pre-treatment on recruitment of Na,K-ATPase to the cell membrane” value in the assay with Na,K-ATPase is listed as “blocked”.
For the compound `CCC(NC(C)C)C(O)c1ccc(O)c2[nH]c(=O)ccc12` (stereo not shown) [procaterol], the “lung liquid clearance in presence of procaterol after procaterol pretreatment, 4 hours” value in the assay with rat lungs (4 hours after first dose, 10^-6 M during measurement) is “not different from untreated controls”. Besides, the “lung liquid clearance in presence of procaterol after procaterol pretreatment, 24 hours” value in the assay on rat lungs (24 hours) is “remained less than naive rats”. Besides, the “β2AR expression in apical membranes of peripheral lung” value at β2AR is on record as “marked reductions”.
